Measured values published in PubChem BioAssay (NCI).
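Test compounds were applied to cells in 96-well plates for 48 hours at 5 doses. The concentration for 50% growth inhibition is given as GI50. At the TGI there is no net growth.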

What was measured:
Assay in all cases: NCI anticancer screen, dose series, 48 h
A549 NSCLC = system: A549 NSCLC
EKVX NSCLC = system: EKVX NSCLC
HCT-15 colon = system: HCT-15 colon
HOP-62 NSCLC = system: HOP-62 NSCLC
LOX IMVI melanoma = system: LOX IMVI melanoma
MDA-MB-231 breast = system: MDA-MB-231 breast
SW-620 colon = system: SW-620 colon
T-47D breast = system: T-47D breast
LXFL 529 NSCLC = system: LXFL 529 NSCLC
SNB-78 CNS = system: SNB-78 CNS

SMILES	GI50 (A549 NSCLC)	TGI (A549 NSCLC)	GI50 (EKVX NSCLC)	TGI (EKVX NSCLC)	GI50 (HCT-15 colon)	TGI (HCT-15 colon)	GI50 (HOP-62 NSCLC)	TGI (HOP-62 NSCLC)	GI50 (LOX IMVI melanoma)	TGI (LOX IMVI melanoma)	GI50 (MDA-MB-231 breast)	TGI (MDA-MB-231 breast)	GI50 (SW-620 colon)	TGI (SW-620 colon)	GI50 (T-47D breast)	TGI (T-47D breast)	TGI (LXFL 529 NSCLC)	TGI (SNB-78 CNS)
CC1=C(C(=O)Nc2ccc(F)c(Cl)c2)C(c2cccc(Cl)c2)NC(=O)N1 (configuration not stated)	24.7 µM	85.1 µM	24.2 µM	72.6 µM	20.6 µM	46.9 µM	17.5 µM	35 µM	16.9 µM	31.6 µM	11.6 µM	25.1 µM	18.9 µM	40.7 µM	15.4 µM	53.1 µM	–	–
O=Nc1c(-c2cccc([N+](=O)[O-])c2)nc2ncccn12	21.8 µM	56.9 µM	18.3 µM	43.3 µM	3.77 µM	17.8 µM	20.9 µM	48.7 µM	11.6 µM	27 µM	16.4 µM	35.2 µM	2.08 µM	6.03 µM	6.29 µM	39.1 µM	–	–
CC(C)(C)c1ccccc1NS(=O)(=O)c1ccccc1	–	> 100 µM	–	> 100 µM	–	> 100 µM	–	> 100 µM	–	–	–	–	–	> 100 µM	–	–	> 100 µM	> 100 µM
COc1ccc(C2CC(c3cc(OC)c(OC)c(OC)c3)=NN2)cc1 (configuration not stated)	6.23 µM	> 100 µM	9.26 µM	> 100 µM	3.48 µM	> 100 µM	28.7 µM	99.2 µM	5.52 µM	> 100 µM	22.5 µM	> 100 µM	4.58 µM	> 100 µM	3.61 µM	> 100 µM	–	–
C=C1C(=O)O[C@H]2[C@H]1CC/C(Cn1cc(CCC)nn1)=C\CC[C@@]1(C)O[C@@H]21	22.3 µM	44.3 µM	11.5 µM	23.6 µM	2.9 µM	12.3 µM	14.1 µM	27.8 µM	3.9 µM	16.9 µM	4.22 µM	16.3 µM	4.23 µM	14.4 µM	4.11 µM	21.3 µM	–	–
COc1ccccc1NC(=O)C1=C(C)NC(C)=C(C(=O)Nc2ccccc2OC)C1c1ccc(C(C)C)cc1	–	> 100 µM	–	> 100 µM	–	> 100 µM	–	> 100 µM	–	> 100 µM	–	–	–	> 100 µM	–	–	> 100 µM	–
O=Cc1ccc(C(F)(F)F)cc1.[C-]#[O+].[C-]#[O+].[C-]#[O+].[Cr]	23 µM	> 100 µM	16.3 µM	45 µM	26.1 µM	82.7 µM	46.6 µM	> 100 µM	26.2 µM	> 100 µM	25 µM	> 100 µM	30.9 µM	> 100 µM	14.4 µM	62.4 µM	–	–
COc1ccc(C(=O)Nc2cccc(C3CC(=O)c4c(cc(OC)c(OC)c4OC)O3)c2)cc1 (configuration not stated)	3.31 µM	> 100 µM	3.12 µM	> 100 µM	0.475 µM	> 100 µM	1.72 µM	> 100 µM	0.84 µM	52.4 µM	2.06 µM	> 100 µM	0.691 µM	> 100 µM	2.13 µM	8.1 µM	–	–
Cc1c2c(nn1-c1ccc(S/N=C3\SCC(=O)CN3c3ccccc3)cc1)-c1ccccc1CC2	> 50 µM	> 50 µM	> 50 µM	> 50 µM	21.2 µM	> 50 µM	12.7 µM	47.7 µM	5.59 µM	34.2 µM	15.4 µM	> 50 µM	19.1 µM	> 50 µM	24.7 µM	> 50 µM	–	–
NCCOc1ccccn1	–	> 100 µM	–	> 100 µM	–	> 100 µM	–	> 100 µM	–	> 100 µM	–	> 100 µM	–	> 100 µM	–	> 100 µM	–	–
CO/N=C1/c2cc(OC)ccc2-c2c(NOC)nc3ccccc3c21	16 µM	37.3 µM	31.7 µM	> 100 µM	32.6 µM	> 100 µM	24.6 µM	39.4 µM	26.7 µM	> 100 µM	12.6 µM	40.1 µM	60.1 µM	> 100 µM	41.2 µM	> 100 µM	–	–
N#Cc1c2ccccc2c2nnc3cc(Cl)c(Cl)cc3n12	47.7 µM	> 100 µM	48.6 µM	> 100 µM	33 µM	> 100 µM	31.2 µM	> 100 µM	59.3 µM	> 100 µM	24.2 µM	74.6 µM	> 100 µM	> 100 µM	> 100 µM	> 100 µM	–	–
CC1SC(c2cccs2)N(NC(=O)C(O)c2ccccc2)C1=O (configuration not stated)	> 100 µM	> 100 µM	> 100 µM	> 100 µM	> 100 µM	> 100 µM	> 100 µM	> 100 µM	> 100 µM	> 100 µM	> 100 µM	> 100 µM	> 100 µM	> 100 µM	> 100 µM	> 100 µM	–	–
CC(C)(C)c1ccc(-c2nnc(SCc3ccc(Cl)cc3)n2-c2cccc(C(F)(F)F)c2)cc1	–	> 100 µM	–	81.9 µM	–	> 100 µM	–	> 100 µM	–	> 100 µM	–	> 100 µM	–	> 100 µM	–	> 100 µM	–	–
C[n+]1c2ccccc2c(NC2CCNCC2)c2[nH]c3ccccc3c21	0.0812 µM	2.73 µM	0.391 µM	5.39 µM	10.3 µM	> 46 µM	0.473 µM	5.17 µM	1.68 µM	5.52 µM	0.762 µM	7.19 µM	1.23 µM	6.73 µM	0.217 µM	2.04 µM	–	–
COc1ccc2c(CNCCCCO)cc3cc4c(cc3c2c1)OCO4	0.552 µM	6.07 µM	2.78 µM	11.4 µM	1.43 µM	8.61 µM	1.98 µM	10.6 µM	1.25 µM	5.37 µM	2.06 µM	6.2 µM	0.228 µM	2.35 µM	3.71 µM	> 46.7 µM	–	–
